Experiment [1] deals with T1, CCK receptors (Cavia porcellus, UniProt Q63931).
T1 construct: cortex and pancreas were removed and rinsed with ice-cold saline; from tissue; host or cells: guinea pig pancreas membranes
T1 sequence (Q63931 1-430): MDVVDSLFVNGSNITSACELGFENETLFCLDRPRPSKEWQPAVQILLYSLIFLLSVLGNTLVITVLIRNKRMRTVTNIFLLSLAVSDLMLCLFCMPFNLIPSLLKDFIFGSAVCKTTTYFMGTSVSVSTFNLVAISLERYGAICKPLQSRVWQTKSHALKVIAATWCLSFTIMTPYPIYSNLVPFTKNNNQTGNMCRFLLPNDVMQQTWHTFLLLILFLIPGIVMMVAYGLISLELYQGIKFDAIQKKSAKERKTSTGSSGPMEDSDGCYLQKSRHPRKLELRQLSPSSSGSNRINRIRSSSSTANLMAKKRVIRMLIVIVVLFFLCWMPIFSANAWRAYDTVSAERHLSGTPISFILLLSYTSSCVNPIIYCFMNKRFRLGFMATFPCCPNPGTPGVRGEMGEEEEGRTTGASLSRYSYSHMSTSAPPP
Kind of experiment: [125I]BH-CCK8 radioligand binding, guinea pig pancreatic membranes. To be noted: 37°C for 30 min, read-out: IC₅₀ (nM) [¹²⁵I]-BH-CCK₈ Pancreas.

The target of experiment [2] is T2, CCK receptors (Cavia porcellus, UniProt H0VZC5).
T2 construct: cortex and pancreas were removed and rinsed with ice-cold saline; from tissue; host or cells: guinea pig cerebral cortex membranes
T2 sequence (H0VZC5 1-426): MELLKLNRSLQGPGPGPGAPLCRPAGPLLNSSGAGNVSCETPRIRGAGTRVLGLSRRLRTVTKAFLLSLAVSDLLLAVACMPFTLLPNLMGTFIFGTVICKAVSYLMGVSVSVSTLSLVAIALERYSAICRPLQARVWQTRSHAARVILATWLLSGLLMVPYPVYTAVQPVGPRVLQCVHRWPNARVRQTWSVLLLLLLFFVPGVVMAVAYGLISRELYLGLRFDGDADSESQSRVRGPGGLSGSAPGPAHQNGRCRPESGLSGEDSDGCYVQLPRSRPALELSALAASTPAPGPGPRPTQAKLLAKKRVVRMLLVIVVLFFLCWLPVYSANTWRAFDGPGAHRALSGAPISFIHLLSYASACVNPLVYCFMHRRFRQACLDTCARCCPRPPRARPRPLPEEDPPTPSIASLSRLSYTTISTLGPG
As to the kind of experiment: [125I]BH-CCK8 radioligand binding, guinea pig cerebral cortical membranes. The settings on record: 30°C for 150 min, read-out: IC₅₀ (nM) [¹²⁵I]-BH-CCK₈ Cortex.

The target in experiment [3] is T1, CCK receptors. Kind of experiment: Inhibition of CCK8-stimulated amylase release from guinea pig pancreatic acini. It is filed as cell-based. The settings on record: reference concentration for CCK₈ 3x10⁻¹⁰M, 37°C, 30 min, read-out: IC₅₀ (nM) Inhibition of Amylase Release. As to the method:
This assay was performed using the modified protocol of Lin et al., J. Pharmacol Exp. Ther. 236, 729-734, 1986. Guinea pig acini were prepared by the method of Bruzzone et al. (Biochem. J. 226, 621-624, 1985) as follows. Pancreas was dissected out and connective tissues and blood vessels were removed. […] The composition of the KRH buffer was: HEPES, 12.5 mM: NaCl, 118 mM; […] CaCl₂, 1 mM; KH₂PO₄, 1.2 mM; MgSO₄, 1.2 mM; NaHCO₃, 5 mM; glucose, 10 mM, pH 7.4. The buffer was supplemented with 1% MEM vitamins, 1% MEM amino acids and 0.001% aprotinin. The tube was shaken by hand until the suspension appeared homogeneous, usually 5 to 6 min. 5 mL of the KRH, without collagenase and with 0.1% BSA, were added and the tube was centrifuged at 50 x g for 35 sec. The supernatant was discarded and 6 mL of the KRH were added to the cell pellet. […] This wash procedure was repeated once. The cell pellet from the last centrifugation step was then resuspended in 15 mL of KRH containing 0.1% BSA. The contents were filtered through a dual nylon mesh, size 275 and 75 um. The filtrate, containing the acini, were centrifuged at 50 x g for 3 min. The acini were then resuspended in 5 mL of KRH-BSA buffer for 30 min at 37°C, under 100% O₂, with a change of fresh buffer at 15 min. After the 30 min incubation time, the acini were resuspended in 100 volumes of KRH-BSA buffer, containing 3 uM phosphoramidon and 100 µM bestatin. […] The final assay volume was 500 uL. Tubes were vortexed and placed in a 37°C waterbath, under 100% O₂, for 30 min. Afterward, tubes were centrifuged at 10,000 g for 1 min. Amylase activity in the supernatant and the cell pellet were separately determined after appropriate dilutions in 0.1% Triton X-100, 10 mM NaH₂PO₄, pH 7.4 by Abbott Amylase A-gent test using the Abbott Bichromatic Analyzer 200. […]

Each structure is given as a SMILES string. Structures can show the parent of a compound that is named as a salt. Where only a bound is given, the exact number is not on record here.

As for `CCCCCN(CCCCC)C(=O)[C@@H](Cc1c[nH]c2ccccc12)NC(=O)c1cnc2ccccc2c1` [Example 117, N-(3′-Quinolylcarbonyl)-R-Tryptophan-di-n-pentylamide mesylate salt], the IC50 at CCK receptors [1] worked out at 17 nM; on CCK receptors [2], 13000 nM.

As to `CCCCCN(CCCCC)C(=O)[C@@H](Cc1c[nH]c2ccccc12)NC(=O)c1ccc2cccc(O)c2n1` [Example 90, N′(8′-Hydroxy-2′-quinolylcarbonyl)-R-Tryptophan-di-n-pentylamide], the IC50 on CCK receptors [1] is 230 nM; on CCK receptors [2], > 10000 nM.

As to `O=C(NC(Cc1c[nH]c2ccccc12)C(=O)N1CCC2CCCCC2C1)c1cnc2ccccc2c1` (stereo not drawn) [Example 40, N-(3′-Quinolylcarbonyl)-Tryptophan-perhydroisoquinolylamide], the IC50 on CCK receptors [1] is 1000 nM; on CCK receptors [2], 10000 nM; on CCK receptors [3] it was < 100000 nM.

For `CCCCCN(CCCCC)C(=O)[C@@H](Cc1c[nH]c2ccccc12)NC(=O)c1cc2ccccc2[nH]1` [Example 3, N-(2′-Indolylcarbonyl)-R-Tryptophan-di-n-pentylamide], the IC50 amounted to 51 nM on CCK receptors [1] and 670 nM on CCK receptors [3].

For `CCOC(=O)CN(Cc1ccccc1)C(=O)[C@@H](Cc1c[nH]c2ccccc12)NC(=O)c1cc2ccccc2[nH]1` [Example 28, Ethyl N-(2′-Indolylcarbonyl)-R-Tryptophyl-(N-benzyl)Glycinate], the IC50 on CCK receptors [1] is 280 nM; on CCK receptors [2] it was 10000 nM; at CCK receptors [3], < 10000 nM.

Regarding `C[C@H](NC(=O)C(Cc1c[nH]c2ccccc12)NC(=O)c1cc2ccccc2[nH]1)c1ccccc1` (stereo partly drawn) [Example 19, N-(2′-Indolylcarbonyl)-Tryptophan-(1′,S-phenylethyl)amide], the values for the IC50 at CCK receptors [1], on CCK receptors [2] and on CCK receptors [3] were 1000 nM, > 10000 nM and < 10000 nM, respectively.

As to `CCCCCN(CCCCC)C(=O)[C@H]1Cc2c([nH]c3ccccc23)N1C(=O)c1cnc2ccccc2c1` [Example 78, 2,3-Dihydro-1-(3′-quinolylcarbonyl)-pyrrolo[2,3-b]indole-(2R)-dipentylcarboxamide], the IC50 at CCK receptors [1] is 370 nM; on CCK receptors [2], > 10000 nM.

For the compound `CCCCCN(CCCCC)C(=O)[C@@H](CC1C(=O)Nc2ccccc21)NC(=O)c1cnc2ccccc2c1` (stereo partly drawn) [Example 69, N-(3′-Quinolylcarbonyl)-R-(β-oxyindolyl)Ala-di-n-pentylamide], the IC50 on CCK receptors [1] is 10 nM; on CCK receptors [2], 4100 nM.

Consider `CCCCCN(CCCCC)C(=O)C(Cc1c[nH]c2ccc(OCc3ccccc3)cc12)NC(=O)c1cnc2ccccc2c1` (racemic) [Example 53, N-(3′-Quinolylcarbonyl)-R,S-5-benzyloxytryptophan-di-n-pentylamide], for which the IC50 on CCK receptors [2] is > 10000 nM.

Consider `O=C(N[C@H](Cc1c[nH]c2ccccc12)C(=O)NCc1ccccc1)c1cnc2ccccc2c1` [Example 7, N-(3′-Quinolylcarbonyl)-R-Tryptophan-benzylamide], for which the IC50 at CCK receptors [3] was < 30000 nM.

Take `CCCCCN(CCCCC)C(=O)[C@@H](Cc1c[nH]c2ccccc12)NC(=O)C1=C(C)c2ccccc2C1` [Example 57, N-(2′-(3′-Methylindenyl)carbonyl)-R-Tryptophan-di-n-pentylamide]: the IC50 on CCK receptors [1] is 750 nM; on CCK receptors [2] it was > 10000 nM.

On to `CCCCCN(CCCCC)C(=O)[C@@H](Cc1c[nH]c2ccccc12)NC(=O)c1cc(O)c2cccc(O)c2n1` [Example 91, N-(4′,8′-Dihydroxy-2′-quinolylcarbonyl)-R-Tryptophan-di-n-pentylamide], for which the IC50 on CCK receptors [1] was determined as 5 nM.

Turning to `CCCCCN(CCCCC)C(=O)C(Cc1c[nH]c2ccc(F)cc12)NC(=O)c1cc2ccccc2[nH]1` (racemic) [Example 64, N-(2′-Indolylcarbonyl)-R,S-5-fluorotryptophandi-n-pentylamide], the values for the IC50 at CCK receptors [1] and on CCK receptors [2] were 330 nM and 10000 nM, respectively.

Consider `O=C(NC(Cc1c[nH]c2ccccc12)C(=O)Nc1cnc2ccccc2c1)c1cnc2ccccc2c1` (stereo not drawn) [Example 46, N-(3′-Quinolylcarbonyl)-Tryptophan-N-(3′-quinolyl)amide], for which, at CCK receptors [3], the IC50 was < 10000 nM.

For the compound `CCCCCN(CCCCC)C(=O)[C@@H](Cc1c[nH]c2ccccc12)NC(=O)c1cc2cc(F)ccc2[nH]1` [Example 106, N-(5′-Fluoro-2′-indolylcarbonyl)-R-Tryptophan-di-n-pentylamide], the IC50 on CCK receptors [1] amounted to 82 nM.

For `CCCCCN(CCCCC)C(=O)[C@@H](Cc1c[nH]c2ccc(O)cc12)NC(=O)c1cnc2ccccc2c1` [Example 84, N^α-(3′-Quinolylcarbonyl)-R-5-hydroxytryptophan-di-n-pentylamide], the IC50 on CCK receptors [1] was 2.6 nM; at CCK receptors [2], < 10000 nM.

With `CCCCCN(CCCCC)C(=O)[C@@H](Cc1c[nH]c2ccccc12)NC(=O)c1ccc2cc(O)ccc2c1` [Example 93, N-(6′-Hydroxy-2′-naphthoyl)-R-Tryptophan-di-n-pentylamide], the IC50 at CCK receptors [3] came out at 100000 nM.

In the case of `CCCCCN(CCCCC)C(=O)C(Cc1c[nH]c2ccc(F)cc12)NC(=O)c1cnc2ccccc2c1` (racemic) [Example 63, N-(3′-Quinolylcarbonyl)-R,S-5-fluorotryptophan-di-n-pentylamide], the IC50 at CCK receptors [1] was 62 nM; on CCK receptors [2], > 10000 nM.

Take `CCCCCN(CCCCC)C(=O)C(Cc1c[nH]c2ccccc12)NC(=O)C=Cc1cccnc1` (stereo not drawn) [Example 54, N-(3′-(3˝-Pyridyl)prop-2-enoyl)-R-Tryptophan-di-n-pentylamide]: on CCK receptors [3], the IC50 is < 100000 nM.

`COC(=O)[C@@H](NC(=O)[C@@H](Cc1c[nH]c2ccccc12)NC(=O)c1cnc2ccccc2c1)c1ccc(O)cc1` [Example 50, Methyl N-(3′-Quinolylcarbonyl)-R-Tryptophyl-S-(p-hydroxyphenyl)glycinate]: the IC50 on CCK receptors [1] was 1200 nM; at CCK receptors [2] it was > 10000 nM.

As to `CCCCCN(CCCCC)C(=O)[C@@H](Cc1c(Sc2ccccc2[N+](=O)[O-])[nH]c2ccccc12)NC(=O)c1cnc2ccccc2c1` [Example 45, N-(3′-Quinolylcarbonyl)-2-(2′-nitrophenylsulfenyl)-R-Tryptophan-di-n-pentylamide], the IC50 is 1500 nM at CCK receptors [1] and > 10000 nM at CCK receptors [2].

On to `CCCCCN(CCCCC)C(=O)[C@@H](Cc1c[nH]c2ccccc12)NC(=O)c1ccc2ncccc2c1` [Example 97, N-(6′-Quinolylcarbonyl)-R-Tryptophan-di-n-pentylamide], for which the IC50 on CCK receptors [1] is 180 nM; on CCK receptors [3], < 100000 nM.

For the compound `CCCCCN(CCCCC)C(=O)[C@@H](Cc1c[nH]c2ccccc12)NC(=O)c1cc2ccccc2cn1` [Example 96, N-(3′-Isoquinolylcarbonyl)-R-Tryptophan-di-n-pentylamide], the IC50 on CCK receptors [1] was 630 nM; on CCK receptors [3], < 100000 nM.

For `CCCCCN(CCCCC)C(=O)[C@@H](Cc1c[nH]c2ccccc12)NC(=O)c1ccc(Cl)cc1` [Example 4, N-(p-Chlorobenzoyl)-R-Tryptophan-di-n-pentylamide], at CCK receptors [1], the IC50 is 330 nM.

Take `CCCCCN(CCCCC)C(=O)[C@@H](Cc1c[nH]c2ccccc12)NC(=O)c1cc2cc(C)ccc2[nH]1` [Example 105, N-(5′-Methyl-2′-indolylcarbonyl)-R-Tryptophan-di-n-pentylamide]: the IC50 was 620 nM at CCK receptors [1] and > 10000 nM on CCK receptors [2].

Values taken from patent EP0336356A2, “Derivatives of tryptophan as CCK antagonists” (ABBOTT LABORATORIES, priority 1988, dated 1989).
